{"source": "patent US20250144054A1", "about": "“SMALL MOLECULE STAT3 INHIBITOR FOR TREATING TRIPLE NEGATIVE BREAST CANCER” (UNIVERSITY OF MARYLAND, BALTIMORE, priority 2022, published 2025)", "key": {"STAT3 [1]": {"tested_on": "STAT3", "assay": "Western blot of P-STAT3 (Y705), STAT3, Cyclin D1, Cleaved Caspase-3 in 4T1 cells", "type": "cell-based, murine", "conditions": "4T1, overnight, vs DMSO", "method": "(A) MDA-MB-231, SUM159, and 4T1 cell lines were treated with DMSO or LLL12B overnight and the expression levels of P-STAT3 (Y705), STAT3, Cyclin D1, and Cleaved Caspase-3 were analyzed by Western blot. GAPDH served as a protein loading control. (B) MDA-MB-231 cells were treated with DMSO or C188-9 overnight and the expression levels of P-STAT3 (Y705), STAT3, Cyclin D1, and Cleaved Caspase-3 were analyzed by Western blot. (C) MDA-MB-231, SUM159, and 4T1 cells were seeded in a 96-well plate and treated with DMSO or LLL12B for 5 hours and a Caspase-3/7 Fluorescence Assay Kit was used to detect the activation of caspase-3/7. (D) MDA-MB-231, SUM159, and 4T1 cell lines were treated with DMSO or LLL12B for 8-12 hours, and flow cytometry was performed to analyze annexin V and PI staining. The quantification of apoptotic cells was shown in the right panel. ** P<0.01, *** P<0.001 and ****P<0.0001.\nSiRNA and transfection. STAT3 siRNA and Negative Control siRNA (Cell Signaling Technology, Danvers, MA, USA) were used to knock down STAT3 in MDA-MB-231, SUM159, and 4T1 cell lines. Cells were transfected with STAT3 siRNA or Negative Control siRNA using Lipofectamine RNAiMAX (Invitrogen, Carlsbad, CA, USA) according to the manufacturer's instructions. After 72 hours, cell viability was examined by MTT cell viability assay, and the transfection efficiency was examined by western blot.\n(§1) Western blot. Cells were collected and total protein was extracted using cell lysis buffer (Cell Signaling Technology, Danvers, MA, USA). Protein concentration was determined using the Pierce BCA Protein Assay Kit (Thermo Fisher Scientific, Waltham, MA, USA) according to the manufacturer's instructions. Equal amounts of protein were separated by 10% SDS-PAGE gels and transferred to PVDF membranes. Membranes were blocked in 5% non-fat milk at room temperature and probed with specific antibodies P-STAT3 (Y705), STAT3, Cyclin D1, Cleaved Caspase-3, P-STAT1 (Y701), STAT1, P-ERK, ERK or GAPDH (1:1000, Cell Signaling Technology, Danvers, MA, USA) at 4° C. overnight. […]"}, "caspase-3/7": {"tested_on": "caspase-3/7", "assay": "Caspase-3/7 activity assay, SUM159 cells", "type": "cell-based, human", "conditions": "SUM159, 5 hours, vs DMSO", "method": "Caspase-3/7 activity assay. The Caspase-3/7 Fluorescence Assay Kit (Cayman, Ann Arbor, MI, USA) was used to detect the activation of caspase-3/7 and the assay was performed according to the manufacturer's instructions. Briefly, MDA-MB-231, SUM159, and 4T1 cells were seeded in a 96-well plate in triplicate. After overnight incubation, cells were treated with either LLL12B or DMSO for 5 hours. Cells were lysed and processed to measure caspase-3/7 activity and the fluorescence intensity was read (excitation=485 nm; emission=535 nm)."}, "HPAC cells": {"tested_on": "HPAC cells", "assay": "Wound healing assay, HPAC cells", "type": "cell-based, human", "conditions": "approximate 24 hours", "method": "The inhibitory effects on cell migration by LLL12B in pancreatic cancer cells was also examined. The human HPAC pancreatic cancer cells were seeded and allowed to attach for 24 hours. Then cells were treated with different concentrations of LLL12B for approximate 24 hours and the cell migration was determined by wound healing assay."}, "MDA-MB-231 cells [2]": {"tested_on": "MDA-MB-231 cells", "assay": "Colony formation assay, MDA-MB-231 cells", "type": "cell-based, human", "conditions": "MDA-MB-231, 24 hours treatment, 7 days drug-free, vs DMSO", "method": "(§2) Colony formation assay. MDA-MB-231, SUM159, and 4T1 cells were seeded in a 6-well plate at a density of 1000 cells/well and treated with DMSO or LLL12B for 24 hours, and then cultured in a drug-free culture medium for 7 days. Colonies were fixed with methanol for 30 min and stained with 1% crystal violet in 25% methanol for 2 hours at room temperature."}, "MDA-MB-231 cells [3]": {"tested_on": "MDA-MB-231 cells", "assay": "Annexin V and PI flow cytometry, MDA-MB-231 cells", "type": "cell-based, human", "conditions": "MDA-MB-231, 8-12 hours, vs DMSO", "method": "(§3) Flow cytometry analysis. Flow cytometry was performed to detect cell apoptosis. The APC Annexin V Apoptosis Detection Kit (Biolegend, San Diego, CA, USA) was used for Annexin V staining. Cells were seeded in a 35 mm culture dish at a density of 1×10^5 cells/dish. After overnight incubation, cells were treated with DMSO or LLL12B for 8-12 hours. Cells were harvested and stained with Annexin V-APC and propidium iodide (PI) according to the manufacturer's instructions. After staining, cells were counted using a FACSCanto II flow cytometer (BD Biosciences, San Jose, CA, USA)."}, "STAT3 [4]": {"tested_on": "STAT3", "assay": "IL-6 induced STAT3 phosphorylation, Western blot, MDA-MB-231 cells", "type": "cell-based, human", "conditions": "pretreated 2 hours serum-free, 50 ng/ml IL-6 30 minutes", "method": "(§4) (A) The chemical structures of LLL12B and LLL12. The carbamate ester bond of LLL12B is hydrolytically cleaved by the tumor-associated plasmin to release LLL12. (B) SUM159 cells were seeded in a 6-well plate and treated with LLL12B for 8 hours. Cells were stained with Phospho-Stat3 (Tyr705) and DAPI (indicated by arrows). Green: P-STAT3 (Y705); Blue: DAPI. T47D (C) and MDA-MB-231 (D) breast cancer cells were pretreated with DMSO or LLL12B in a serum-free medium for 2 hours and stimulated with 50 ng/ml of IL-6, IFN-γ, or EGF for additional 30 minutes. Cells were collected and analyzed by Western blot. GAPDH served as a protein loading control.\nas §1"}, "4T1 cells": {"tested_on": "4T1 cells", "assay": "Annexin V and PI flow cytometry, 4T1 cells", "type": "cell-based, murine", "conditions": "4T1, 8-12 hours, vs DMSO", "method": "as §3"}, "STAT3 [5]": {"tested_on": "STAT3", "conditions": "human medulloblastoma cells, refs [25,31]; cited from earlier work"}, "ERK": {"tested_on": "ERK", "assay": "EGF induced ERK phosphorylation, Western blot, T47D cells", "type": "cell-based, human", "conditions": "pretreated 2 hours, 50 ng/ml EGF 30 minutes", "method": "as §4, §1"}, "STAT1": {"tested_on": "STAT1", "assay": "IFN-γ induced STAT1 phosphorylation, Western blot, MDA-MB-231 cells", "type": "cell-based, human", "conditions": "pretreated 2 hours, 50 ng/ml IFN-γ 30 minutes", "method": "as §4, §1"}, "SUM159 cells": {"tested_on": "SUM159 cells", "assay": "Colony formation assay, SUM159 cells", "type": "cell-based, human", "conditions": "SUM159, 24 hours treatment, 7 days drug-free, vs DMSO", "method": "as §2"}}, "data": [{"smiles": "CN(C)C(=O)Oc1cccc2c1C(=O)c1cccc(S(N)(=O)=O)c1C2=O", "note": "[LLL12B]", "values": [{"measurement": "Cyclin D1 expression", "setting": "STAT3 [1]", "value": "decreased"}, {"measurement": "expression of Cleaved Caspase-3", "setting": "STAT3 [1]", "value": "enhanced"}, {"measurement": "phosphorylation of STAT3", "setting": "STAT3 [1]", "value": "decreased"}, {"measurement": "activation of caspase-3/7", "setting": "caspase-3/7", "value": "induced the activation"}, {"measurement": "cell migration", "setting": "HPAC cells", "value": "significantly inhibits"}, {"measurement": "colony numbers", "setting": "MDA-MB-231 cells [2]", "value": "significant reduction"}, {"measurement": "percentage of apoptotic cells", "setting": "MDA-MB-231 cells [3]", "value": "significantly increased"}, {"measurement": "IL-6 induced phosphorylation of STAT3 (Y705)", "setting": "STAT3 [4]", "value": "inhibited"}, {"measurement": "percentage of apoptotic cells", "setting": "4T1 cells", "value": "significantly increased"}, {"measurement": "IL-6 induced STAT3 phosphorylation", "setting": "STAT3 [5]", "value": "inhibited"}, {"measurement": "induction of P-ERK stimulated by EGF", "setting": "ERK", "value": "did not inhibit"}, {"measurement": "induction of P-STAT1 (Y701) stimulated by IFN-γ", "setting": "STAT1", "value": "did not inhibit"}, {"measurement": "colony numbers", "setting": "SUM159 cells", "value": "significant reduction"}]}]}
